Measured values reported in US20110281854A1, “MORPHOLINE COMPOUNDS” (Pfizer Inc, priority 2010, published 2011).
Where two headings read alike, the source gives them in different places.

Target: T1, MR (Homo sapiens, UniProt P08235)
T1 construct: expressed in transfected cells; host or cells: Huh7 human liver cells (ATCC), transient transfection with FuGENE 6
T1 sequence (P08235 726-964 limits assumed): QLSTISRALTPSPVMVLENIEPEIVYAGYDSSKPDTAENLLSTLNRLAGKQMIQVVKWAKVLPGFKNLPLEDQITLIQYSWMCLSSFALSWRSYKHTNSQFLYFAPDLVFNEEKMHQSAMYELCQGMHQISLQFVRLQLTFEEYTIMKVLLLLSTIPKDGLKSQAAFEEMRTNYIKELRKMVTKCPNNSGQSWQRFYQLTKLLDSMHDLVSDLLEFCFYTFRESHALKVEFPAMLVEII
Experiment: Cell-based reporter assay (Gal4-MR-LBD luciferase, antagonist mode)
Description: To measure the ability of test compound in the present invention to modulate the activity of MR (agonize, antagonize, partially agonize, partially antagonize), bioassays were performed that measured the modulation of reporter gene expression. Cells were transiently transfected with a luciferase reporter gene under the control of a Gal4 response element (Gal4-RE-luc) and a plasmid containing the Gal4 DNA binding domain fused to the MR ligand binding domain (Gal4-MR-LBD). Agonists can bind to and activate the MR-LBD, which activates the expression of the luciferase reporter gene through interaction with the Gal4 response element. […] Antagonists can compete for binding to the NHR-LBD and decrease the agonist-induced transcriptional activity of the reporter gene. Therefore, measurement of luciferase activity allowed quantitative determinations of the reporter transcription in the presence of either agonists or competitive antagonists.
The final concentration of DMSO in the test plate was 0.5%. Following an overnight incubation with compound, 25 μL of Steady-Glow™ lysis buffer with luciferase substrate (Promega Corporation, E2550) was added directly to the cells. After a 30-minute incubation to completely lyse the cells, the microplates were counted in an Envision™ Multilabel Reader (Perkin Elmer) in single photon counting mode.

| Molecule | IC50 | IC50 (antagonist mode, decrease of EC80 aldosterone signal by 50%, Huh7 cells transfected with Gal4-MR-LBD and Gal4-RE-luc) |
| --- | --- | --- |
| C[C@H]1CN(c2ccc3c(n2)NC(=O)CO3)CCO1 (single isomer, unassigned) [Example 18] | 2710 nM |  |
| C[C@H]1CN(c2ccc3c(n2)NC(=O)CO3)[C@@H](c2ccccc2F)CO1 (racemic) [Example 7, (±)-6-(cis-5-(2-fluorophenyl)-2-methylmorpholino)-2H-pyrido[3,2-b][1,4]oxazin-3(4H)-one] | 63.6 nM |  |
| O=C1COc2cnc(N3C[C@@H](C4CC4)OC[C@H]3c3ccccc3)nc2N1 [Example 44, 2-((2R,5R)-2-cyclopropyl-5-phenylmorpholino)-6H-pyrimido[5,4-b][1,4]oxazin-7(8H)-one] | 1230 nM |  |
| C[C@@H]1CN(c2ccc3ccc(=O)[nH]c3c2)[C@H](c2ccccc2)CO1 [Example 59, 7-((2R,5R)-2-methyl-5-phenylmorpholino)quinolin-2(1H)-one] | 703 nM |  |
| CC1(C)CN(c2ccc3c(n2)NC(=O)CO3)[C@H](c2ccccc2)CO1 [Example 13, (R)-6-(2,2-dimethyl-5-phenylmorpholino)-2H-pyrido[3,2-b][1,4]oxazin-3(4H)-one] | 407 nM |  |
| O=C1COc2ccc(N3CCOC[C@H]3c3ccc(F)cc3)nc2N1 (single isomer, unassigned) [Example 14] | 1100 nM |  |
| C[C@@H]1CN(c2ccc3c(n2)NC(=O)CO3)[C@H](c2ccccc2)[C@H](C)O1 [Example 69, 6-((2S,3R,6R)-2,6-dimethyl-3-phenylmorpholino)-2H-pyrido[3,2-b][1,4]oxazin-3(4H)-one] | 204 nM |  |
| O=C1COc2ccc(N3C[C@@H](CF)OC[C@H]3c3ccccc3)nc2N1 [Example 39, 6-((2S,5R)-2-(fluoromethyl)-5-phenylmorpholino)-2H-pyrido[3,2-b][1,4]oxazin-3(4H)-one] | 86.7 nM |  |
| C[C@@H]1CN(c2cc3c(cn2)OCC(=O)N3)[C@H](c2ccccc2F)CO1 (single isomer, unassigned) [Example 33] | 53.9 nM |  |
| C[C@@H]1CN(c2ncc3c(n2)NC(=O)CO3)[C@H](c2ccccc2)[C@H](C)O1 [Example 42, 2-((2S,3R,6R)-2,6-dimethyl-3-phenylmorpholino)-6H-pyrimido[5,4-b][1,4]oxazin-7(8H)-one] | 527 nM |  |
| C[C@@H]1CN(c2ccc3c(n2)NC(=O)CO3)[C@H](c2ccccc2Cl)CO1 (single isomer, unassigned) [Example 67] | 135 nM |  |
| Cc1cc(N2C[C@@H](C)OC[C@H]2c2ccccc2)nc2c1OCC(=O)N2 [Example 5, 8-methyl-6-((2R,5R)-2-methyl-5-phenylmorpholino)-2H-pyrido[3,2-b][1,4]oxazin-3(4H)-one] | 174 nM |  |
| O=C1COc2ccc(N3CCOCC34CCc3ccccc34)nc2N1 (stereo not shown) [Example 36, 6-(2,3-dihydrospiro[indene-1,3′-morpholin]-4′-yl)-2H-pyrido[3,2-b][1,4]oxazin-3(4H)-one] | 1740 nM |  |
| (±)-2-(cis-5-(2-methoxyphenyl)-2-methylmorpholino)-6H-pyrimido[5,4-b][1,4]oxazin-7(8H)-one [Example 56] |  | 5330 nM |
| C[C@@H]1CN(c2cc3c(cn2)OCC(=O)N3)[C@H](c2ccc(F)cc2)CO1 [Example 61, 7-((2R,5R)-5-(4-fluorophenyl)-2-methylmorpholino)-1H-pyrido[3,4-b][1,4]oxazin-2(3H)-one] | 646 nM |  |
| Cc1c(NS(C)(=O)=O)cccc1N1C[C@@H](C)OC[C@H]1c1ccccc1 [Example 63, N-(2-methyl-3-((2R,5R)-2-methyl-5-phenylmorpholino)phenyl)methanesulfonamide] | 4270 nM |  |
| Cc1cc(N2CCOC[C@H]2c2ccccc2)cc2c1OCC(=O)N2 (single isomer, unassigned) [Example 22] | 885 nM |  |
| C[C@@H]1CN(c2ccc3c(n2)NC(=O)CO3)[C@@H]2c3ccccc3C[C@@H]2O1 (single isomer, unassigned) [Example 23] | 284 nM |  |
| C[C@H]1CN(c2cc3c(cn2)OCC(=O)N3)[C@@H](c2cccc(F)c2)CO1 (racemic) [Example 50, (±)-7-(cis-5-(3-fluorophenyl)-2-methylmorpholino)-1H-pyrido[3,4-b][1,4]oxazin-2(3H)-one] | 272 nM |  |
| C[C@@H]1CN(c2ccc3c(n2)NC(=O)CO3)[C@H](c2ccccc2F)CO1 (single isomer, unassigned) [Example 8] | 33.4 nM |  |
| C[C@@H]1CN(c2ccc3c(n2)NC(=O)CO3)C[C@@H](C)O1 [Example 54, 6-((2R,6R)-2,6-dimethylmorpholino)-2H-pyrido[3,2-b][1,4]oxazin-3(4H)-one] | 2800 nM |  |

More lines, in order of falling IC50, values ahead:

| IC50 | IC50 (antagonist mode, decrease of EC80 aldosterone signal by 50%, Huh7 cells transfected with Gal4-MR-LBD and Gal4-RE-luc) | Molecule |
| --- | --- | --- |
| 9560 nM |  | C[C@@H]1CN(c2nc3c(cc2C#N)OCC(=O)N3)[C@H](c2ccccc2)CO1 [Example 60, 6-((2R,5R)-2-methyl-5-phenylmorpholino)-3-oxo-3,4-dihydro-2H-pyrido[3,2-b][1,4]oxazine-7-carbonitrile] |
| 8750 nM |  | O=C1COc2ccc(N3CCOC4(CCCc5ccccc54)C3)cc2N1 (stereo not shown) [Example 72, 6-(3′,4′-dihydro-2′H-spiro[morpholine-2,1′-naphthalene]-4-yl)-2H-benzo[b][1,4]oxazin-3(4H)-one] |
| 6340 nM |  | O=C1COc2ccc(N3CCOC4(CCOc5ccccc54)C3)cc2N1 (stereo not shown) [Example 73, 6-(spiro[chroman-4,2′-morpholine]-4′-yl)-2H-benzo[b][1,4]oxazin-3(4H)-one] |
| 4970 nM |  | CC1(c2ccccc2)CN(c2ccc3c(c2)NC(=O)CO3)CCO1 (stereo not shown) [Example 38, 6-(2-methyl-2-phenylmorpholino)-2H-benzo[b][1,4]oxazin-3(4H)-one] |
| 4690 nM |  | CC[C@@H]1CN(c2ccc3c(n2)NC(=O)CO3)C[C@H](CC)O1 [Example 57, 6-(cis-2,6-diethylmorpholino)-2H-pyrido[3,2-b][1,4]oxazin-3(4H)-one] |
| 3420 nM |  | Cc1ccc(C2(C)CN(c3ccc4c(c3)NC(=O)CO4)CCO2)cc1 (stereo not shown) [Example 74, 6-(2-methyl-2-p-tolylmorpholino)-2H-benzo[b][1,4]oxazin-3(4H)-one] |
| 3370 nM |  | CCC1CN(c2ccc3c(n2)NC(=O)CO3)CCO1 (stereo not shown) [Example 26, 6-(2-ethylmorpholino)-2H-pyrido[3,2-b][1,4]oxazin-3(4H)-one] |
| 2990 nM |  | C[C@@H]1CN(c2cnc3c(c2)NC(=O)CO3)[C@H](c2ccccc2)CO1 [Example 58, 7-((2R,5R)-2-methyl-5-phenylmorpholino)-1H-pyrido[2,3-b][1,4]oxazin-2(3H)-one] |
| 2280 nM |  | Cc1nc(N2C[C@@H](C)OC[C@H]2c2ccccc2)nc2c1OCC(=O)N2 [Example 68, 4-methyl-2-((2R,5R)-2-methyl-5-phenylmorpholino)-6H-pyrimido[5,4-b][1,4]oxazin-7(8H)-one] |
| 1770 nM |  | C[C@H]1CN(c2ccc3c(n2)NC(=O)CO3)[C@@H]2c3ccccc3C[C@@H]2O1 (single isomer, unassigned) [Example 24] |
| 1630 nM |  | C[C@@H]1CN(c2ccc3c(c2)NS(=O)(=O)CO3)[C@H](c2ccccc2)CO1 [Example 47, 7-[(2R,5R)-2-methyl-5-phenylmorpholin-4-yl]-1H-4,2,1-benzoxathiazine 2,2-dioxide] |
| 1440 nM |  | C[C@@H]1CN(c2nc3c(cc2F)OCC(=O)N3)[C@H](c2ccccc2)CO1 [Example 37, 7-fluoro-6-((2R,5R)-2-methyl-5-phenylmorpholino)-2H-pyrido[3,2-b][1,4]oxazin-3(4H)-one] |
| 913 nM |  | O=C1COc2ccc(N3C[C@@H](C4CC4)OC[C@H]3c3ccccc3)nc2N1 [Example 31, 6-((2R,5R)-2-cyclopropyl-5-phenylmorpholino)-2H-pyrido[3,2-b][1,4]oxazin-3(4H)-one] |
| 798 nM |  | C[C@@H]1CN(c2ccc3c(n2)NC(=O)CO3)C[C@H](C)O1 [Example 25, 6-(cis-2,6-dimethylmorpholino)-2H-pyrido[3,2-b][1,4]oxazin-3(4H)-one] |
| 628 nM |  | O=C1COc2ccc(N3CC4(COC4)OC[C@H]3c3ccccc3)nc2N1 [Example 70, (R)-6-(7-phenyl-2,5-dioxa-8-azaspiro[3.5]nonan-8-yl)-2H-pyrido[3,2-b][1,4]oxazin-3(4H)-one] |
| 583 nM |  | O=C1COc2ccc(N3CCOC[C@H]3c3ccccc3)cc2N1 [Example 21, (R)-6-(3-phenylmorpholino)-2H-benzo[b][1,4]oxazin-3(4H)-one] |
| 537 nM |  | C[C@H]1CN(c2ncc3c(n2)NC(=O)CO3)[C@@H](c2cccc(F)c2)CO1 (racemic) [Example 51, (±)-2-(cis-5-(3-fluorophenyl)-2-methylmorpholino)-6H-pyrimido[5,4-b][1,4]oxazin-7(8H)-one] |
| 395 nM |  | C[C@@H]1CN(c2cc3c(cn2)OCC(=O)N3)[C@H](c2ccccc2)[C@H](C)O1 [Example 43, 7-((2S,3R,6R)-2,6-dimethyl-3-phenylmorpholino)-1H-pyrido[3,4-b][1,4]oxazin-2(3H)-one] |
| 146 nM |  | C[C@H]1CN(c2ncc3c(n2)NC(=O)CO3)[C@@H](c2ccccc2F)CO1 (racemic) [Example 34, (±)-2-(cis-5-(2-fluorophenyl)-2-methylmorpholino)-6H-pyrimido[5,4-b][1,4]oxazin-7(8H)-one] |
